Here are results for six compounds from PMC4760439, “Glicentin‐related pancreatic polypeptide inhibits glucose‐stimulated insulin secretion from the isolated pancreas of adult male rats” (Physiological Reports, 2015).

“Also recorded” adds a separate entry of the source.

Assay [1] has as its system isolated perfused rat pancreas. The assay can be described thus: Isolated perfused rat pancreas: insulin secretion (GSIS), lactate. Set-up: species or system Male Sprague‐Dawley rat. The note with it: for Insulin secretion at 5 mmol L^−1 glucose (vs control): first 20 min; for Insulin secretion at 5 mmol L^−1 glucose (vs control) / Glucose‐stimulated insulin secretion (GSIS) at 20 mmol L^−1 glucose (vs control): rGRPP and rGRPP‐LP 3 or 30 pmol min^−1, hGLP‐1 7–36 30 pmol min^−1, n = 5/group, insulin by ELISA, 37°C; for Glucose‐stimulated insulin secretion (GSIS) at 20 mmol L^−1 glucose (vs control): 20–40 min; for Glucose‐stimulated insulin secretion (GSIS) at 20 mmol L^−1 glucose (vs control) / First phase of GSIS (vs control) / Second phase of GSIS (vs control): 20 mmol L^−1 glucose; for First phase of GSIS (vs control): t = 22 min; for Second phase of GSIS (vs control): t = 26 min to t = 40. As for the experimental part:
(§1) All studies were performed under approval of the University of Auckland Animal Ethics Committee and were consistent with the ARRIVE guidelines (Kilkenny et al. 2012). Male Sprague‐Dawley rats (220–300 g) were obtained from a breeding colony in the Integrated Physiology Unit, School of Biological Sciences at the University of Auckland. Animals were housed in standard environmental conditions under a 12‐hour light/dark cycle and a temperature of 20 ± 1°C. They were maintained on Teklad TB 2018 (Harlan, UK) rat chow and tap water ad libitum.
Isolated pancreas perfusion
General aspects of the preparation for the isolated pancreas perfusions were the same as those for the liver perfusion studies (above). Particular aspects of the preparation for the pancreas perfusion studies were as follows. After laparotomy, the pancreas and duodenum were removed en bloc and perfused (in nonrecirculating mode) consistent with our previous report (Buchanan et al. 2001). Each pancreatic preparation was quickly connected to the custom‐made, temperature‐controlled, organ perfusion system and perfused at 3 mL min^−1 with oxygenated perfusion buffer (containing at final concentrations in mmol L^−1): NaCl, 112; NaHCO3, 29.3; KCl, 4.4; CaCl2, 2.4; MgSO4, 1.2; D‐glucose, 5.0; with BSA, 0.5% (w/v), Dextran 4% (w/v) at pH 7.4 gassed with O2:CO2 95:5% (v/v) at 37°C. […] Each pancreas was stabilized for 30 min before hormones or vehicle (buffer only) was delivered via a side‐arm infusion.
(§2) Measurement of organ perfusion parameters
(§3) Glucose and lactate concentrations were measured in both organ preparations using a YSI2300 Stat glucose and lactate analyzer (Yellow Springs, Ohio). Portal pressure was measured in isolated‐perfused liver preparations in mmH2O via a T‐tube located 10 cm upstream from the preparation.
(§4) Maximum pancreatic first‐phase insulin secretion in the presence of hormone infusion was contrasted with corresponding control values by unpaired Welch's t‐tests for preplanned comparisons, to allow for unequal variance between groups. Linear mixed‐effects models were fitted by restricted maximum likelihood (LME‐REML) to data obtained from each indicated phase of isolated perfused–organs studies, using S‐PLUS version 8.2 (TIBCO, Spotfire). Calculated P‐values <0.05 are presented in the article and reflect the likelihood ratio between two models, the effect in question (treatment, time, or treatment:time) against the model without the effect in question. Insulin secreted from isolated islets was expressed as a percentage of insulin content and compared using one‐way ANOVA (GraphPad Prism version 6.0: GraphPad Software Inc., San Diego, CA). Cyclic AMP data have been normalized to the response obtained to forskolin and fitted to obtain concentration–response curves using a three‐parameter logistic equation (GraphPad Prism version 6.0: GraphPad Software Inc., San Diego, CA): pEC50 values were obtained from the concentration–response curves and compared using one‐way ANOVA. All data are presented as mean ± SEM of three to four independent experiments.
Figure 3 Effects of proglucagon products on insulin secretion in the isolated‐perfused rat pancreas.
Background: ELISA stands for enzyme-linked immunosorbent assay.

Assay [2] has as its target T1, human glucagon receptor (hGL‐R) (Homo sapiens, UniProt P47871).
T1 construct: expressed in transfected cells; host or cells: Cos 7 cells
The assay can be described thus: Antagonism of glucagon‐stimulated cAMP production, hGL‐R. The note with it: peptide preincubated 5 min. Format: cell-based. As for the experimental part:
(§5) Transfection of Cos 7 cells
(§6) Cos 7 cells were maintained and subcultured as previously described (Bailey and Hay 2006) and plated at a density of 15,000 cells per well into 96‐well plates 1 day prior to transfection. […] Cyclic AMP assays were performed 48 h after transfection (Bailey and Hay 2006). The human GRPP was obtained from Bachem (Bubendorf, Switzerland).
(§7) Cyclic AMP stimulation of transfected Cos 7 cells
(§8) Transfected cells were serum‐deprived in DMEM containing 1 mmol L^−1 IBMX and 0.1% (w/v) bovine serum albumin (BSA) for 30 min. […] Plates were incubated at 37°C for 10 min. […] Media were then aspirated from the wells and reactions terminated by addition of ice‐cold absolute ethanol. Ethanol was then evaporated to dryness and cell extracts re‐suspended in 45 μL cAMP assay buffer: cAMP concentrations were determined using ALPHA‐screen assay kits (Perkin Elmer, Massachusetts) as previously described (Gingell et al. 2010).
(§9) Maximum pancreatic first‐phase insulin secretion in the presence of hormone infusion was contrasted with corresponding control values by unpaired Welch's t‐tests for preplanned comparisons, to allow for unequal variance between groups. […] Calculated P‐values <0.05 are presented in the article and reflect the likelihood ratio between two models, the effect in question (treatment, time, or treatment:time) against the model without the effect in question. […]

Another assay deals with perfused rat liver. The assay is described as follows: Isolated perfused rat liver: glucose output, lactate output, portal pressure. Set-up: species or system Male Sprague‐Dawley rat. The note with it: for Lactate output (effect of peptide vs control) / Portal pressure (effect of peptide vs control) / Glucose output, epinephrine‐stimulated (effect of peptide vs control): 2.3 or 230 pmol g^−1 min^−1 (n = 5 and n = 3), epinephrine 100 pmol g^−1 min^−1, 30–60 min; for Glucose output, epinephrine‐stimulated (effect of peptide vs control): 37°C. As for the experimental part:
as §1
Under general anesthesia (isoflurane 2–5%; 2 L min^−1 O2 via nasal cone), nonfasted rats underwent laparotomy between 8:00 and 9:00 AM on the experimental day. The liver was removed and quickly connected to a custom‐made, temperature‐controlled, organ perfusion system, whereby it was perfused (in nonrecirculating mode) in a manner similar to that reported previously (Englisch et al. 2000; Whiting et al. 2013). Livers were perfused at a rate of 2 mL g^−1 min^−1 with perfusion media containing final concentrations (in mmol L^−1): NaCl, 128; NaHCO3, 23.9; KCl, 6.0; CaCl2, 2.4; MgSO4, 1.18; D‐glucose, 5; 3‐(‐N‐morpholino)propane sulfonate, 1.29; with fatty‐acid‐free BSA, 0.5% (w/v) at pH 7.4 gassed with O2:CO2 95:5% (v/v) at 37°C. Each liver was stabilized for 40 min: thereafter, hormone‐containing solutions or vehicle (buffer only) was delivered via a side‐arm infusion. Hormones were also investigated with regard to their ability to attenuate epinephrine‐stimulated hepatic glucose output (Epinephrine, Sigma‐Aldrich, St. Louis, MO). Epinephrine was added 30 min after the addition of hormones was commenced.
as §2, §3, §4
Figure 2 Effect of rGRPP and rGRPP‐LP on glucose output, lactate output, and portal pressure in the isolated perfused rat liver. Livers from Sprague‐Dawley rats were isolated and perfused with rGRPP (left panels: 2.3 or 230 pmol g^−1 min^−1, n = 5 and n = 3, respectively), rGRPP‐LP (right panels: 2.3 or 230 pmol g^−1 min^−1, n = 5 and n = 3), or vehicle (all panels: control, n = 5). Livers were perfused with hormones or vehicle from 0 to 60 min with 0–30 min as the basal period.

In assay [3] the target is T1, human glucagon receptor (hGL‐R). The assay is described as follows: cAMP stimulation in transfected Cos 7 cells, hGL‐R. Type of assay: cell-based. The note with it: Cos 7, 37°C, 10 min, ALPHA‐screen. As for the experimental part:
as §5, §6, §7, §8
as §4, with “Cyclic AMP data have been normalized to the response obtained to forskolin and fitted to obtain concentration–response curves using a three‐parameter logistic equation (GraphPad Prism version 6.0: GraphPad Software Inc., San Diego, CA): pEC50 values were obtained from the concentration–response curves and compared using one‐way ANOVA. All data are presented as mean ± SEM of three to four independent experiments.” left out

Assay [4] concerns the target T2, human GLP‐1 receptor (hGLP‐1R) (Homo sapiens, UniProt P43220).
T2 construct: expressed in transfected cells; host or cells: Cos 7 cells
The assay can be described thus: cAMP stimulation in transfected Cos 7 cells, hGLP‐1R. Type of assay: cell-based. The settings on record: Cos 7, 37°C, 10 min, ALPHA‐screen. The procedure:
as §5, §6, §7, §8, §9

The target in assay [5] is T2, human GLP‐1 receptor (hGLP‐1R). The assay is described as follows: Antagonism of GLP‐1 7–36‐stimulated cAMP production, hGLP‐1R. The note with it: peptide preincubated 5 min. Type of assay: cell-based. As for the experimental part:
as §5, §6, §7, §8, §9
(cAMP levels reflect the balance of adenylyl cyclase and phosphodiesterase activity.)

A further assay has as its system canine pancreas. The settings on record: cited from earlier work. An excerpt:
However, we know of only one study reporting the effects of GRPP on GSIS. […] The precise experimental conditions such as amount of glucose and experimental model used may have influences on the different outcomes; however, the reason for the opposing actions of GRPP between these ...

Where [6] appears, read: 100 pmol g^−1 min^−1, 30–60 min, all groups.

T1 sequence (P47871 26-477): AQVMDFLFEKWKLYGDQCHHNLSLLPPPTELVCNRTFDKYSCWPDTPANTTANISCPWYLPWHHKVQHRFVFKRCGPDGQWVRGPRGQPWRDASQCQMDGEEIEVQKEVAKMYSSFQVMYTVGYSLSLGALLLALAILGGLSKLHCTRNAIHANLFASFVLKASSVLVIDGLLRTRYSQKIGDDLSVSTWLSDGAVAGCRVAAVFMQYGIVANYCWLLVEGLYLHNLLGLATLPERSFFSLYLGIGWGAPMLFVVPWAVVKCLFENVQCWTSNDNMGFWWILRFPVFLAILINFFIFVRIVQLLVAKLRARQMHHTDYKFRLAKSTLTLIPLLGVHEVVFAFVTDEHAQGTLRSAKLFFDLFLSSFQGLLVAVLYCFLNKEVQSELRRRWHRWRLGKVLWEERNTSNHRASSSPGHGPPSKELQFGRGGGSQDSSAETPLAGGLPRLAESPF
T2 sequence (P43220 24-463): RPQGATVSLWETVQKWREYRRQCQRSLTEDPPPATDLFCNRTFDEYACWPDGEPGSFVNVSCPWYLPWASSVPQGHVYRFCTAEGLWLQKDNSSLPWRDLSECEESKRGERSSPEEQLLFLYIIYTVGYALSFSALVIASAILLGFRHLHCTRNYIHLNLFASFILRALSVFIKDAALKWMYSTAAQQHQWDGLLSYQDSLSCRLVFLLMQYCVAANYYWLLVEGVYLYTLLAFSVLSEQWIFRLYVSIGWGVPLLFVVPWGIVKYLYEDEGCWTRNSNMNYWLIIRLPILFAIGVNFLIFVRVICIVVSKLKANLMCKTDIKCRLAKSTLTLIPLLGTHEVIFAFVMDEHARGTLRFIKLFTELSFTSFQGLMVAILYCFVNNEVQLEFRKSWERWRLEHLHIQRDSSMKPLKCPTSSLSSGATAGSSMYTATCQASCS

Regarding “HAPQDTEENARSFPASQTEPLEDPNQINE [rGRPP‐LP, rat GRPP‐like peptide]”, in assay [1], the “Insulin secretion at 5 mmol L^−1 glucose (vs control)” value is “No significant difference in insulin secretion”, the “Glucose‐stimulated insulin secretion (GSIS) at 20 mmol L^−1 glucose (vs control)” value is on record as “potent inhibition of glucose‐stimulated insulin secretion (GSIS) from the rat pancreas; also recorded: inhibited GSIS”, the “First phase of GSIS (vs control)” value was “inhibited the initial first phase of GSIS in the isolated rat pancreas” and the “Second phase of GSIS (vs control)” value was “ongoing suppression of insulin secretion throughout the second phase”. The “Antagonism of glucagon‐stimulated cAMP production” value in assay [2] is given as “nor did they antagonize glucagon‐ or GLP‐1‐stimulated cAMP‐production at either receptor”. In addition, in the assay on perfused rat liver, the “Lactate output (effect of peptide vs control)” value was “Neither dose of rGRPP nor rGRPP‐LP modified these parameters compared with control values”; the “Portal pressure (effect of peptide vs control)” value is given as “Neither dose of rGRPP nor rGRPP‐LP modified these parameters compared with control values”; the “Glucose output, epinephrine‐stimulated (effect of peptide vs control)” value (shortened to “Glucose output … (effect of peptide vs control)”) is recorded as “Neither dose of rGRPP nor rGRPP‐LP modified these parameters compared with control values”. Further, the “Glucose output … (effect of peptide vs control)” value in the assay on perfused rat liver (listed as GRPP‐LP) is listed as “not modified by rGRPP or GRPP‐LP”. In addition, the “Stimulation of cAMP production at hGL‐R” value in assay [3] is on record as “neither rGRPP nor rGRPP‐LP stimulated cAMP production at either receptor”. For the same compound, in assay [4], the “Stimulation of cAMP production at hGLP‐1R” value is listed as “neither rGRPP nor rGRPP‐LP stimulated cAMP production at either receptor”. Further, the “Antagonism of GLP‐1‐stimulated cAMP production” value in assay [5] is given as “nor did they antagonize glucagon‐ or GLP‐1‐stimulated cAMP‐production at either receptor”.

“HAPQDTEENARSFPASQTEPLEDPDQINED [rGRPP, rat glicentin‐related pancreatic polypeptide, 30 amino acid Gcg‐derived peptide, synthesized by Fmoc solid‐phase peptide synthesis]”: in assay [1], the “Insulin secretion at 5 mmol L^−1 glucose (vs control)” value is listed as “No significant difference in insulin secretion”, the “Glucose‐stimulated insulin secretion (GSIS) at 20 mmol L^−1 glucose (vs control)” value is “potent inhibition of glucose‐stimulated insulin secretion (GSIS) from the rat pancreas; also recorded: inhibited GSIS”, the “First phase of GSIS (vs control)” value is on record as “inhibited the initial first phase of GSIS in the isolated rat pancreas” and the “Second phase of GSIS (vs control)” value is recorded as “ongoing suppression of insulin secretion throughout the second phase”. Further, in assay [2], the “Antagonism of glucagon‐stimulated cAMP production” value is “nor did they antagonize glucagon‐ or GLP‐1‐stimulated cAMP‐production at either receptor; also recorded: no shifts in the GLP‐1 7–36 or glucagon concentration–response curves”. Further, in the assay with perfused rat liver, the “Lactate output (effect of peptide vs control)” value is listed as “Neither dose of rGRPP nor rGRPP‐LP modified these parameters compared with control values”; the “Portal pressure (effect of peptide vs control)” value is given as “Neither dose of rGRPP nor rGRPP‐LP modified these parameters compared with control values”; the “Glucose output … (effect of peptide vs control)” value is recorded as “not modified by rGRPP or GRPP‐LP; also recorded: Neither dose of rGRPP nor rGRPP‐LP modified these parameters compared with control values”. Further, the “Stimulation of cAMP production at hGL‐R” value in assay [3] is on record as “neither rGRPP nor rGRPP‐LP stimulated cAMP production at either receptor”. In addition, the “Stimulation of cAMP production at hGLP‐1R” value in assay [4] is given as “neither rGRPP nor rGRPP‐LP stimulated cAMP production at either receptor”. In addition, the “Antagonism of GLP‐1‐stimulated cAMP production” value in assay [5] is given as “nor did they antagonize glucagon‐ or GLP‐1‐stimulated cAMP‐production at either receptor; also recorded: no shifts in the GLP‐1 7–36 or glucagon concentration–response curves”.

For the compound “porcine GRPP: porcine GRPP, literature peptide (RSLQNTEEKSRSFPAPQTDPLDDPDQMTED; Glicentin-related polypeptide; UniProt P01274 21-50, looked up)”, the “Insulin and glucagon secretion, canine pancreas” value in the assay on canine pancreas (ref Ohneda and Ohneda 1988) is “insulin was possibly increased and glucagon decreased”.

As for “human glicentin 12–69: encompasses both GRPP and glucagon sequences (SFSASQADPLSDPDQMNEDKRHSQGTFTSDYSKYLDSRRAQDFVQWLMNTKRNRNNIA; Glicentin; UniProt P01275 32-89, looked up, fragment)”, in the assay on canine pancreas (ref Yanaihara et al. 1985), the “GSIS and glucagon secretion, perfused canine pancreas” value was “enhanced GSIS and inhibited glucagon secretion in the perfused canine pancreas”.

In the case of “human glicentin 1–16: human glicentin 1–16, literature peptide (RSLQDTEEKSRSFSAS; Glicentin; UniProt P01275 21-36, looked up, fragment)”, the “Plasma insulin and glucagon, canine pancreas” value with canine pancreas (local circulation preparation of the canine pancreas, ref Ohneda and Ohneda 1988) was “slight increases in plasma insulin and decreases in plasma glucagon”.

As to `CNC[C@H](O)c1ccc(O)c(O)c1` [epinephrine, reference compound], in the assay on perfused rat liver (setting [6]), the “Glucose output, effect of epinephrine” value was “evoked an increase in glucose output in all groups”; the “Lactate release, effect of epinephrine” value is on record as “expected elevation of lactate release”; the “Portal pressure, effect of epinephrine” value is “expected elevation of lactate release and portal pressure”.
